Measurements published in patent publication US5627263A, “Integrin-binding peptides” (La Jolla Cancer Research Foundation, priority 1995, dated 1997).
Where a SMILES comes first, the peptide text is derived from it. Bridges are numbered along the chain shown (N, C = ends).

Key:
α5 β1 integrin [1] = biological target: T1, α5 β1 integrin (UniProt G3HZ55+P08648); assay: Attachment of B2/α27 cells to immobilized GACRRETAWACGA peptide and its inhibition; format: cell-based, human; conditions: EDTA 10 mM; FIG. 8
T1 construct: expressed in transfected cells; host or cells: CHO B2/α27
Excerpt: Cell lines expressing fibronectin-binding integrins were used to determine peptide activities against these integrins in the cell attachment assay described by Ruoslahti et al., Meth. Enzymol. 144:803-831 (1982), which is incorporated herein by reference. Human plasma fibronectin was iodinated as described by Morla and Ruoslahti, J. Cell Biol. 118:421-429 (1992), which is incorporated herein by reference. Vitronectin was obtained from Telios Pharmaceuticals (San Diego, Calif.). […] Peptide was coated on plastic by incubating at 37° C. for 2 hr in phosphate buffered saline containing 0.25% glutaraldehyde to crosslink the peptide. Free binding sites on the plastic were blocked using BSA. Approximately 1×10^5 cells per well were allowed to attach for 1 hr in the presence or absence of competing peptides. Bound cells were quantitated by staining with 0.1% amido black.
In addition to the inhibition of cell attachment to natural ligands, attachment and inhibition assays were performed using the […] [SEQ ID NO:3] peptide as substrate. The microtiter well were coated with […] [SEQ ID NO:3] using glutaraldehyde as described above. […] Bound cells were quantitated by staining with 0.1% amido black.

α5 β1 integrin [2] = biological target: α5 β1 integrin (Homo sapiens, UniProt P05556+P08648); assay: 125I-fibronectin binding assay, competing peptides; conditions: microtiter wells coated with α5 β1, 1 hr; FIG. 1; read-out: IC50, inhibition of 125I-fibronectin binding to α5 β1
Description: The α5 β1 integrin was bound to α5 specific antibody-coated wells by incubating 300 μl of a placental extract per well in TBS buffer containing 0.1M octylglucoside, 1 mM CaCl2, 1 mM MnCl2 and proteinase inhibitors overnight at 4° C., as described by Pytela et al. (1987), supra. Alternatively, the α5β1 integrin was directly coated on plastic as described above. The wells were extensively washed with TBS containing 0.1% NP-40. ^125 I-labeled fibronectin (100,000 cpm per well) was incubated in the presence of competing peptides for 1 hr at 25° C. in 100 μl volume of TBS containing 0.1% NP-40 and 1 mM MnCl2, as described by Koivunen et al. (1993), supra. After repeated washing, the bound radioactivity was quantitated with a gamma counter.
Initially, CRRETAWAC [SEQ ID NO:6] was examined for its ability to inhibit binding of fibronectin, which is the natural ligand for α5 β1. Briefly, ^125 I-fibronectin was incubated for 1 hr in the presence of competing peptides in microtiter wells coated with α5 β1. Following incubation, the wells were washed and bound radioactivity was determined with a gamma counter.

Row | Inhibition of cell attachment to immobilized RRETAWA peptide by EDTA (α5 β1 integrin [1]) | IC50 (α5 β1 integrin [2]) | SMILES
1 | inhibited |  | O=C(O)CN(CCN(CC(=O)O)CC(=O)O)CC(=O)O [EDTA]
2 |  | ~8 nM | C[C@H](NC(=O)CNC(=O)[C@@H]1CSSC[C@H](NC(=O)[C@H](C)NC(=O)CN)C(=O)N[C@@H](CCCNC(=N)N)C(=O)N[C@@H](CCCNC(=N)N)C(=O)N[C@@H](CCC(=O)O)C(=O)N[C@@H]([C@@H](C)O)C(=O)N[C@@H](C)C(=O)N[C@@H](Cc2c[nH]c3ccccc23)C(=O)N[C@@H](C)C(=O)N1)C(=O)O [CRRETAWAC, GA*CRRETAWAC*GA] (H-GACRRETAWACGA-OH; disulfide 3-11)
3 |  | ~8 nM | CC(C)C[C@H](NC(=O)[C@@H]1CSSC[C@H](NC(=O)[C@H](C)NC(=O)CN)C(=O)N[C@@H](CCCNC(=N)N)C(=O)NCC(=O)N[C@@H](CC(=O)O)C(=O)N1)C(=O)NCC(=O)N[C@@H](C)C(=O)O [CRGDC, GA*CRGDC*LGA] (H-GACRGDCLGA-OH; disulfide 3-7)
